Assay results: paper PMC10284923 (The ISME Journal, 2023)
Where two headings read alike, the source gives them in different places.

How the values were obtained:
Ec_PhnD [1] = settings: ITC, dash = binding not detected, read-out: Dissociation constant (KD); cited from earlier work
Ec_PhnD [2] = settings: intrinsic fluorescence, read-out: Dissociation constant (KD); cited from earlier work
Prochlorococcus MIT9313 = settings: cited from earlier work
Synechococcus WH8102 = format: cell-based
Procedure: (§1) For treatment conditions containing alternative P compounds, 50 µM NaH2PO4 was replaced with 50 µM phosphite (Na2HPO3·5H2O) or methylphosphonate. In P-deplete media, an equal volume of water was added instead of a P compound. Experimental cultures were started from mid-logarithmic cultures grown in phosphate-containing PCR-S11 media. A small inoculum (~100 µL) was used to minimise the transfer of phosphate from stock cultures. Four biological replicates were tested for each experimental condition. Growth was regularly monitored via cell counts using a CytoFLEX S flow cytometer. […] Phosphate concentration in all treatment conditions was monitored regularly for the duration of the experiments using a Phosphate Colorimetric kit following the manufacturer’s instructions (Sigma-Aldrich) with a detection limit of 0.5 µM.

Synechococcus MITS9220 = format: cell-based
Procedure: as §1

Prochlorococcus MED4 = settings: cited from earlier work
WH8102_PhnD1 = WH8102_PhnD1 (Parasynechococcus marenigrum, UniProt Q7U716); format: binding, Synechococcus sp. WH8102; settings: read-out: Dissociation constant (KD)
Pm_PtxB = settings: read-out: Dissociation constant (KD); cited from earlier work
Prochlorococcus MIT9301 = settings: cited from earlier work
CC9311_PhnD1 = format: binding, Synechococcus sp. CC9311; settings: read-out: Dissociation constant (KD)

Chain of WH8102_PhnD1 (Q7U716 27-306 limits assumed): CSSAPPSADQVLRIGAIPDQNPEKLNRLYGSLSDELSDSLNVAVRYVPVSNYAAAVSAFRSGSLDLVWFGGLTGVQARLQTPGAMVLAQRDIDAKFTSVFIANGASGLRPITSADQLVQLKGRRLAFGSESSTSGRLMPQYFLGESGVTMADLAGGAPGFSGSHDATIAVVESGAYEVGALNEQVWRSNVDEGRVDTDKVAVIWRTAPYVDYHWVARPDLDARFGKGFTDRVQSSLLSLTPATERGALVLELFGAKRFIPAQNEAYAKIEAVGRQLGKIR

| Compound | Kd (Ec_PhnD [1]) | Kd (Ec_PhnD [2]) | Growth and utilisation of P source (Prochlorococcus MIT9313) | Growth as sole P source (Synechococcus WH8102; 50 µM P source, PCR-S11 medium, cell density by flow cytometry, 49 days) | Growth as sole P source (Synechococcus MITS9220; 50 µM P source, PCR-S11 medium, cell density by flow cytometry) | Growth and utilisation of P source (Prochlorococcus MED4) | Kd (WH8102_PhnD1) | Kd (Pm_PtxB) | Growth as sole P source (Synechococcus WH8102) | Growth as sole P source (Synechococcus MITS9220) | Use as sole P source to support growth (Prochlorococcus MIT9301) | Kd (CC9311_PhnD1) |
| --- | --- | --- | --- | --- | --- | --- | --- | --- | --- | --- | --- | --- |
| NCCP(=O)(O)O [2-AEP, 2-aminoethylphosphonate] | 100 nM | < 50 nM | – | – | – | – | – | – | – | – | – | – |
| O=P(O)(O)O [Pi, inorganic phosphate] | – | – | only able to utilise Pi for their growth | growth seen | growth seen | only able to utilise Pi for their growth | – | – | – | – | – | – |
| phosphite [Pt] | – | – | unable to grow and utilise | – | – | unable to grow and utilise | 4300 ± 500 nM | 2000 nM | do not exhibit a clearly defined exponential growth | do not exhibit a clearly defined exponential growth | can use Pt or MPn as the sole P source to support its growth | 1700 ± 900 nM |
